Tests used:
Test in all cases: competitive isoTOP-ABPP
Format in all cases: binding
OLA1 Obg-like ATPase 1 = target: T1, OLA1 Obg-like ATPase 1 (Homo sapiens, UniProt Q9NTK5); conditions: for isoTOP-ABPP ratio (R) at liganded lysine Q9NTK5_K248: 50 uM, in vitro, sol, 231
T1 construct: endogenous in cells; host or cells: MDA-MB-231 (soluble fraction of lysate)
Outline: (§1)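 Lysate + fragment (50 μM activated ester / 100 μM guanidinylating agent) or DMSO → 0.1 mM STP-alkyne, 1 h, RT → CuAAC to TEV tags (compound light, DMSO heavy) → LC-MS. R = heavy/light MS1 area; liganded lysine if R≥4.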

CUL2 Cullin-2 = target: T2, CUL2 Cullin-2 (Homo sapiens, UniProt Q13617); conditions: for isoTOP-ABPP ratio (R) at liganded lysine Q13617_K489: 50 uM, in vitro, sol, 231
T2 construct: isoTOP-ABPP experiments performed in cell lysates (in vitro); endogenous in cells; host or cells: soluble proteome of human cancer cell lines (MDA-MB-231, Ramos, Jurkat)
Outline: as §1

[1] = target: T3, XRCC6 X-ray repair cross-complementing protein 6 (Homo sapiens, UniProt P12956); conditions: for isoTOP-ABPP ratio (R) at liganded lysine P12956_K351: 50 uM, in vitro, sol, 231
T3 construct: isoTOP-ABPP experiments performed in cell lysates (in vitro); endogenous in cells; host or cells: soluble proteome of human cancer cell lines (MDA-MB-231; Ramos and Jurkat also prepared)
Outline: as §1

[2] = target: T4, TRMT10C Mitochondrial ribonuclease P protein 1 (Homo sapiens, UniProt Q7L0Y3); conditions: for isoTOP-ABPP ratio (R) at liganded lysine Q7L0Y3_K325: 50 uM, in vitro, sol, 231
T4 construct: isoTOP-ABPP experiments performed in cell lysates (in vitro); endogenous in cells; host or cells: soluble proteome of human cancer cell lines (MDA-MB-231; Ramos and Jurkat also prepared)
T4 sequence (Q7L0Y3 40-403): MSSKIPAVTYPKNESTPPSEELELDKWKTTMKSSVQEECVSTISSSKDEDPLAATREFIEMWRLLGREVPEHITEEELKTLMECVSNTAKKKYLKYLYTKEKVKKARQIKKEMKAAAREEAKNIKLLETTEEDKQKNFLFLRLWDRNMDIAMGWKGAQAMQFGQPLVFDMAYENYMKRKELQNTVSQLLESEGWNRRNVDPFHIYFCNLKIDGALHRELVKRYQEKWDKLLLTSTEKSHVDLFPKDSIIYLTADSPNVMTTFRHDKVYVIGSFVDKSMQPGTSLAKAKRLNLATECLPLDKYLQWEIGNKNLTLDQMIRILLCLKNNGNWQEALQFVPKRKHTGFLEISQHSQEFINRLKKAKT
Outline: as §1

[3] = target: T5, G6PD Glucose-6-phosphate 1-dehydrogenase (Homo sapiens, UniProt P11413); conditions: for isoTOP-ABPP ratio (R) at liganded lysine P11413_K171: 50 uM, in vitro, sol, 231
T5 construct: isoTOP-ABPP experiments performed in cell lysates (in vitro); endogenous in cells; host or cells: MDA-MB-231 soluble lysate
Outline: as §1

[4] = target: T6, WARS Tryptophan--tRNA ligase, cytoplasmic (Homo sapiens, UniProt P23381); conditions: for isoTOP-ABPP ratio (R) at liganded lysine P23381_K256: 50 uM, in vitro, sol, 231
T6 construct: isoTOP-ABPP experiments performed in cell lysates (in vitro); endogenous in cells; host or cells: soluble proteome of human cancer cell lines (MDA-MB-231; Ramos and Jurkat also prepared)
T6 sequence (P23381 1-471): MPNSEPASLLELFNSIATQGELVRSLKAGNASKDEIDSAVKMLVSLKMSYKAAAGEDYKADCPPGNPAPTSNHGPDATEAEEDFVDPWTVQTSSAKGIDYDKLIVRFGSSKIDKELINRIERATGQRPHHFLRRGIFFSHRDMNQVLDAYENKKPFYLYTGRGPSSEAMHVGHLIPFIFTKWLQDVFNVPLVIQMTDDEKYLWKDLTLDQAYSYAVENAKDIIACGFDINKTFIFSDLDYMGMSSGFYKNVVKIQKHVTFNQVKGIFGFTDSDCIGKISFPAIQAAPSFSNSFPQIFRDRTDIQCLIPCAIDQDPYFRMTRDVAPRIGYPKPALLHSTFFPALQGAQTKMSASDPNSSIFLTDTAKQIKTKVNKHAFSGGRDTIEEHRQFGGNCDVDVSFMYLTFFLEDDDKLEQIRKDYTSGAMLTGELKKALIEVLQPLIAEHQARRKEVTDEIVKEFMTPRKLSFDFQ
Outline: as §1

[5] = target: T7, NAA25 N-alpha-acetyltransferase 25, NatB auxiliary subunit (Homo sapiens, UniProt Q14CX7); conditions: 50 uM_231_sol_in vitro
T7 construct: isoTOP-ABPP experiments performed in cell lysates (in vitro); endogenous in cells; host or cells: soluble proteome of human cancer cell lines (MDA-MB-231; Ramos and Jurkat also prepared)
Outline: as §1

T3 sequence (P12956 2-609 limits assumed): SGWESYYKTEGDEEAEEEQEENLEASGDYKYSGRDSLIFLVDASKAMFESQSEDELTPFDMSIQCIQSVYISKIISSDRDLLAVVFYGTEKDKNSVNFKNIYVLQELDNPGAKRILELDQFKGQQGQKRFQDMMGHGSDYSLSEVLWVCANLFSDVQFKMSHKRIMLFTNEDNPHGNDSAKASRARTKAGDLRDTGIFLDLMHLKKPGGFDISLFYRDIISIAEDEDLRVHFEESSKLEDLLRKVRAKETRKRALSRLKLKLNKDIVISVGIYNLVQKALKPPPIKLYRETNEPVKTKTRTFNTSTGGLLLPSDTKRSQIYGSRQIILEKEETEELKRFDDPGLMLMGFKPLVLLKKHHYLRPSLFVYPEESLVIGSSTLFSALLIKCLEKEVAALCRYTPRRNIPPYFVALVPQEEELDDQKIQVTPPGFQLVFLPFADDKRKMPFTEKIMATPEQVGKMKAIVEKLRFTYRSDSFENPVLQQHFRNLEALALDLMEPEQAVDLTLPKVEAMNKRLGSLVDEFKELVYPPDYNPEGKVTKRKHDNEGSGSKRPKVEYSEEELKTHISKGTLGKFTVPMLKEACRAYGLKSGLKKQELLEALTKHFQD
T3 sequence (P13010 2-732 partner limits assumed): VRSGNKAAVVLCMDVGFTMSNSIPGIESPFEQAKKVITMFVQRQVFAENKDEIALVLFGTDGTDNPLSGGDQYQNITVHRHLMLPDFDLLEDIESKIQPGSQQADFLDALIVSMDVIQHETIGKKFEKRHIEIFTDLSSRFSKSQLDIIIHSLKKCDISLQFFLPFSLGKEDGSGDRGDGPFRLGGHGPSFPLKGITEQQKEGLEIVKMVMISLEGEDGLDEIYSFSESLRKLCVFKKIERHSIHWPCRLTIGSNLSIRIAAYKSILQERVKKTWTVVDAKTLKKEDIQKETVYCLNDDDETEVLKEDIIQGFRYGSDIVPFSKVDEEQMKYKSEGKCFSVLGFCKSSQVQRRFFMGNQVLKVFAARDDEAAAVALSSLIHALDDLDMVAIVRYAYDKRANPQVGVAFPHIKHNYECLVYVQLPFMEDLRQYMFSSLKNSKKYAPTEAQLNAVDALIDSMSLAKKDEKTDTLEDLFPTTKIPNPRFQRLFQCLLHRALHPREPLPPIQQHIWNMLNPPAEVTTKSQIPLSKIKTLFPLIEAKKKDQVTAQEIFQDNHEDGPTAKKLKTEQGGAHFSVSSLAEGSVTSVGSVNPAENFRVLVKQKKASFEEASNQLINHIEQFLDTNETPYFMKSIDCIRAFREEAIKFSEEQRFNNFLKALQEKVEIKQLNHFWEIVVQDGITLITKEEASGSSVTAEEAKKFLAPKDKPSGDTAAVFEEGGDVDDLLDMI
T5 sequence (P11413 whole entry): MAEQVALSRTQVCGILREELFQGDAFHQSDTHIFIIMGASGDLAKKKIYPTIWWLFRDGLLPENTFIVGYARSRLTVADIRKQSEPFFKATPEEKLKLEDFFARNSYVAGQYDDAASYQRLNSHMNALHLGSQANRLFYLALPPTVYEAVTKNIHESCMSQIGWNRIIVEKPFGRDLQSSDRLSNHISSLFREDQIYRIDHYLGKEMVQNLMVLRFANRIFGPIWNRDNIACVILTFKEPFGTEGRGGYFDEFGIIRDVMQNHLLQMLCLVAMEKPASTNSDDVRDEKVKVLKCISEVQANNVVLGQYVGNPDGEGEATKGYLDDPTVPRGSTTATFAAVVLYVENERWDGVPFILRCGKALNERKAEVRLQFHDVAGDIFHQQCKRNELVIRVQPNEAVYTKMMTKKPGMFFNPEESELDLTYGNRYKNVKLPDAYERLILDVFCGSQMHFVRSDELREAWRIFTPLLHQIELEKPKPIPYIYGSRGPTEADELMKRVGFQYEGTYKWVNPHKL
T2 sequence (Q13617 whole entry): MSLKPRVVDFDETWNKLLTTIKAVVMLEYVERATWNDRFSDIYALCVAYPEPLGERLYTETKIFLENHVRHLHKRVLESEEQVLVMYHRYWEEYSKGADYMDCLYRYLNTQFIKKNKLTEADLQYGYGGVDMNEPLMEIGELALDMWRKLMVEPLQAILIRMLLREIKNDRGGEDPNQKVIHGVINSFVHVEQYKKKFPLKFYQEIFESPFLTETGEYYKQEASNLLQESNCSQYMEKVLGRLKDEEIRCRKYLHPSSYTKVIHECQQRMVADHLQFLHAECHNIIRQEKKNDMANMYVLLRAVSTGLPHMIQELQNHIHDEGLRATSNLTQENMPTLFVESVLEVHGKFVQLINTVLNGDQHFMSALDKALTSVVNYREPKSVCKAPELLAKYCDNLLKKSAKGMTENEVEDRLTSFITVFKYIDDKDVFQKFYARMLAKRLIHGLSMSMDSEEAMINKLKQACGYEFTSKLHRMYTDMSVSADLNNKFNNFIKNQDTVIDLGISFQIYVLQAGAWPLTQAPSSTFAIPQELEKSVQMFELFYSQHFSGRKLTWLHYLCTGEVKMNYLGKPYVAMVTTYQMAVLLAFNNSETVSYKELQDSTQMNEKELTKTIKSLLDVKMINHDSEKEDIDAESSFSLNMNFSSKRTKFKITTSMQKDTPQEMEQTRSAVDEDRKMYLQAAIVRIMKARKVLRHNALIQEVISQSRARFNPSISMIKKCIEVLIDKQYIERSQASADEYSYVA
T7 sequence (Q14CX7 whole entry): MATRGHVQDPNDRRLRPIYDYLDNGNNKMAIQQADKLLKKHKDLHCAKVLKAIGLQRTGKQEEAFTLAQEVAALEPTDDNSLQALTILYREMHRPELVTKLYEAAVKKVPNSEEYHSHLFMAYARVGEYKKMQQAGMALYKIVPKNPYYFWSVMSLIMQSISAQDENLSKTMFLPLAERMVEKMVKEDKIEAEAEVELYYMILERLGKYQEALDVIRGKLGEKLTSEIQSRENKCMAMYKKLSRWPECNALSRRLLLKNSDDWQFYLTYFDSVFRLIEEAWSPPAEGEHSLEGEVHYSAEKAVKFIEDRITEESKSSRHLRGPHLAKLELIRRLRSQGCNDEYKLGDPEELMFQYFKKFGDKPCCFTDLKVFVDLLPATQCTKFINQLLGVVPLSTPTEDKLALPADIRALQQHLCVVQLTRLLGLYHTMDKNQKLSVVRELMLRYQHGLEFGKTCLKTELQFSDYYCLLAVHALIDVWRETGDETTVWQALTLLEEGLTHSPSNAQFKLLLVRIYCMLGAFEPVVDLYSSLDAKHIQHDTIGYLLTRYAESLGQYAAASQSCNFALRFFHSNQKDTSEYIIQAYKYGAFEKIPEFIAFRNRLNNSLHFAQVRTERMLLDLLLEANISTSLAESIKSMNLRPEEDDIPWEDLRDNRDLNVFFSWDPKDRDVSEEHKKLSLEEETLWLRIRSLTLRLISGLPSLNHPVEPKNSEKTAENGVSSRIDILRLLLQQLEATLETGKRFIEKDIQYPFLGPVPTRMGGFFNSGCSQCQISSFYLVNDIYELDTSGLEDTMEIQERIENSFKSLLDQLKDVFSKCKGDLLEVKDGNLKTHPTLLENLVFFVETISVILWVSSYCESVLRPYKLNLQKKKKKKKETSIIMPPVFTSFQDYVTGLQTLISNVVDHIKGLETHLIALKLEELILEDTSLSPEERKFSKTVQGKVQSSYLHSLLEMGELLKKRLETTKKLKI

O=C(CC12CC3CC(CC(C3)C1)C2)Oc1ccc([N+](=O)[O-])cc1[N+](=O)[O-] [fragment 38, 2,4-Dinitrophenyl 2-(adamantan-1-yl)acetate]
isoTOP-ABPP ratio (R) at liganded lysine Q9NTK5_K248 (OLA1 Obg-like ATPase 1): 0.9
isoTOP-ABPP ratio (R) at liganded lysine Q13617_K489 (CUL2 Cullin-2): 1.4
isoTOP-ABPP ratio (R) at liganded lysine P12956_K351 [1]: 3.3
isoTOP-ABPP ratio (R) at liganded lysine Q7L0Y3_K325 [2]: 0.8
isoTOP-ABPP ratio (R) at liganded lysine P11413_K171 [3]: 0.9
isoTOP-ABPP ratio (R) at liganded lysine P23381_K256 [4]: 1.4

CC(C)(C)OC(=O)NCCCC(=O)Oc1ccc([N+](=O)[O-])cc1[N+](=O)[O-] [fragment 41, 2,4-Dinitrophenyl 4-((tert-butoxycarbonyl)amino)butanoate]
isoTOP-ABPP ratio (R) at liganded lysine Q9NTK5_K248 (OLA1 Obg-like ATPase 1): 1.0
isoTOP-ABPP ratio (R) at liganded lysine Q13617_K489 (CUL2 Cullin-2): 1.0
isoTOP-ABPP ratio (R) at liganded lysine P12956_K351 [1]: 1.6
isoTOP-ABPP ratio (R) at liganded lysine Q7L0Y3_K325 [2]: 0.9
isoTOP-ABPP ratio (R) at liganded lysine P11413_K171 [3]: 1.0
isoTOP-ABPP ratio (R) at liganded lysine P23381_K256 [4]: 0.9

O=C(Oc1ccc([N+](=O)[O-])cc1[N+](=O)[O-])C(c1ccccc1)(c1ccccc1)c1ccccc1 [fragment 42, 2,4-Dinitrophenyl 2,2,2-triphenylacetate]
isoTOP-ABPP ratio (R) at liganded lysine Q9NTK5_K248 (OLA1 Obg-like ATPase 1): 1.0
isoTOP-ABPP ratio (R) at liganded lysine P12956_K351 [1]: 1.0
isoTOP-ABPP ratio (R) at liganded lysine Q7L0Y3_K325 [2]: 1.0
isoTOP-ABPP ratio (R) at liganded lysine P11413_K171 [3]: 0.9
isoTOP-ABPP ratio (R) at liganded lysine P23381_K256 [4]: 1.1

CC(=O)Oc1ccc([N+](=O)[O-])cc1[N+](=O)[O-] [fragment 43, 2,4-Dinitrophenyl acetate]
isoTOP-ABPP ratio (R) at liganded lysine Q9NTK5_K248 (OLA1 Obg-like ATPase 1): 1.0
isoTOP-ABPP ratio (R) at liganded lysine Q13617_K489 (CUL2 Cullin-2): 1.2
isoTOP-ABPP ratio (R) at liganded lysine P12956_K351 [1]: 1.5
isoTOP-ABPP ratio (R) at liganded lysine Q7L0Y3_K325 [2]: 1.0
isoTOP-ABPP ratio (R) at liganded lysine P11413_K171 [3]: 1.0
isoTOP-ABPP ratio (R) at liganded lysine P23381_K256 [4]: 1.0

O=C(ON1C(=O)CCC1=O)c1cc(C(F)(F)F)cc(C(F)(F)F)c1 [fragment 46, 3,5-Bis(trifluoromethyl)benzoic acid NHS ester]
isoTOP-ABPP ratio, lysine Q9NTK5_K248 (OLA1 Obg-like ATPase 1; 50 uM_231_sol_in vitro): 1.2
isoTOP-ABPP ratio, lysine Q13617_K489 (CUL2 Cullin-2; 50 uM_231_sol_in vitro): 1.0
isoTOP-ABPP ratio, lysine P12956_K351 ([1]; 50 uM_231_sol_in vitro): 2.5
isoTOP-ABPP ratio, lysine Q7L0Y3_K325 ([2]; 50 uM_231_sol_in vitro): 1.0
isoTOP-ABPP ratio, lysine P11413_K171 ([3]; 50 uM_231_sol_in vitro): 0.9
isoTOP-ABPP ratio, lysine P23381_K256 ([4]; 50 uM_231_sol_in vitro): 1.6

O=C(Oc1c(F)c(F)c(C(F)(F)F)c(F)c1F)c1cc(C(F)(F)F)cc(C(F)(F)F)c1 [fragment 47, 2,3,5,6-Tetrafluoro-4-(trifluoromethyl)phenyl 3,5-bis(trifluoromethyl)benzoate]
isoTOP-ABPP ratio, lysine Q9NTK5_K248 (OLA1 Obg-like ATPase 1; 50 uM_231_sol_in vitro): 1.2
isoTOP-ABPP ratio, lysine Q13617_K489 (CUL2 Cullin-2; 50 uM_231_sol_in vitro): 0.8
isoTOP-ABPP ratio, lysine P12956_K351 ([1]; 50 uM_231_sol_in vitro): 1.4
isoTOP-ABPP ratio, lysine Q7L0Y3_K325 ([2]; 50 uM_231_sol_in vitro): 1.1
isoTOP-ABPP ratio, lysine P11413_K171 ([3]; 50 uM_231_sol_in vitro): 1.0

O=C(Oc1c(F)c(F)cc(F)c1F)c1cc(C(F)(F)F)cc(C(F)(F)F)c1 [fragment 48, 2,3,5,6-Tetrafluorophenyl 3,5-bis(trifluoromethyl)benzoate]
isoTOP-ABPP ratio, lysine Q9NTK5_K248 (OLA1 Obg-like ATPase 1; 50 uM_231_sol_in vitro): 1.0
isoTOP-ABPP ratio, lysine Q13617_K489 (CUL2 Cullin-2; 50 uM_231_sol_in vitro): 0.8
isoTOP-ABPP ratio, lysine P12956_K351 ([1]; 50 uM_231_sol_in vitro): 1.5
isoTOP-ABPP ratio, lysine Q14CX7_K575 [5]: 1.1
isoTOP-ABPP ratio, lysine P11413_K171 ([3]; 50 uM_231_sol_in vitro): 0.9

CC(C)(C)OC(=O)N=C(NC(=O)OC(C)(C)C)n1cccn1 [fragment 50, reference compound]
isoTOP-ABPP ratio, lysine Q9NTK5_K248 (OLA1 Obg-like ATPase 1; 100 uM_231_sol_in vitro): 2.1
isoTOP-ABPP ratio, lysine Q13617_K489 (CUL2 Cullin-2; 100 uM_231_sol_in vitro): 1.0
isoTOP-ABPP ratio, lysine P12956_K351 ([1]; 100 uM_231_sol_in vitro): 6.0
isoTOP-ABPP ratio, lysine Q7L0Y3_K325 ([2]; 100 uM_231_sol_in vitro): 6.2
isoTOP-ABPP ratio, lysine P11413_K171 ([3]; 100 uM_231_sol_in vitro): 1.1
isoTOP-ABPP ratio, lysine P23381_K256 ([4]; 100 uM_231_sol_in vitro): 1.1
